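GI50 is the concentration that inhibits growth by half. TGI is the concentration that stops growth completely.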
Assays:
Assay in all cases: DTP human tumour cell line panel, 384-well format
786-0 renal = test system: 786-0 renal
A498 renal = test system: A498 renal
A549 NSCLC = test system: A549 NSCLC
ACHN renal = test system: ACHN renal
BT-549 breast = test system: BT-549 breast
CAKI-1 renal = test system: CAKI-1 renal
CCRF-CEM leukemia = test system: CCRF-CEM leukemia
COLO 205 colon = test system: COLO 205 colon
DU-145 prostate = test system: DU-145 prostate
EKVX NSCLC = test system: EKVX NSCLC
HCC-2998 colon = test system: HCC-2998 colon
HCT-116 colon = test system: HCT-116 colon
HCT-15 colon = test system: HCT-15 colon
HL-60(TB) leukemia = test system: HL-60(TB) leukemia
HOP-62 NSCLC = test system: HOP-62 NSCLC
HOP-92 NSCLC = test system: HOP-92 NSCLC
HS 578T breast = test system: HS 578T breast
HT29 colon = test system: HT29 colon
IGROV1 ovarian = test system: IGROV1 ovarian
K-562 leukemia = test system: K-562 leukemia
KM12 colon = test system: KM12 colon
LOX IMVI melanoma = test system: LOX IMVI melanoma
M14 melanoma = test system: M14 melanoma
MALME-3M melanoma = test system: MALME-3M melanoma
MCF7 breast = test system: MCF7 breast
MDA-MB-435 melanoma = test system: MDA-MB-435 melanoma
MDA-MB-468 breast = test system: MDA-MB-468 breast
MOLT-4 leukemia = test system: MOLT-4 leukemia
NCI-H226 lung = test system: NCI-H226 lung
NCI-H23 lung = test system: NCI-H23 lung
NCI-H322M lung = test system: NCI-H322M lung
NCI-H460 NSCLC = test system: NCI-H460 NSCLC
NCI-H522 lung = test system: NCI-H522 lung
NCI/ADR-RES ovarian = test system: NCI/ADR-RES ovarian
OVCAR-3 ovarian = test system: OVCAR-3 ovarian
OVCAR-4 ovarian = test system: OVCAR-4 ovarian
OVCAR-8 ovarian = test system: OVCAR-8 ovarian
PC-3 prostate = test system: PC-3 prostate
RPMI-8226 leukemia = test system: RPMI-8226 leukemia
RXF 393 renal = test system: RXF 393 renal
SF-268 CNS = test system: SF-268 CNS
SF-295 CNS = test system: SF-295 CNS
SF-539 CNS = test system: SF-539 CNS
SK-MEL-2 melanoma = test system: SK-MEL-2 melanoma
SK-MEL-28 melanoma = test system: SK-MEL-28 melanoma
SK-MEL-5 melanoma = test system: SK-MEL-5 melanoma
SK-OV-3 ovarian = test system: SK-OV-3 ovarian
SN12C renal = test system: SN12C renal
SNB-19 CNS = test system: SNB-19 CNS
SNB-75 CNS = test system: SNB-75 CNS
SW-620 colon = test system: SW-620 colon
TK-10 renal = test system: TK-10 renal
U251 glioblastoma = test system: U251 glioblastoma
UACC-257 melanoma = test system: UACC-257 melanoma
UACC-62 melanoma = test system: UACC-62 melanoma
MDA-MB-231 breast = test system: MDA-MB-231 breast
OVCAR-5 ovarian = test system: OVCAR-5 ovarian
SR leukemia = test system: SR leukemia
T-47D breast = test system: T-47D breast
UO-31 renal = test system: UO-31 renal

## Nc1cc2c(cc1Cl)C(=O)c1ccccc1C2=O
786-0 renal
  GI50: 2.35 µM
  TGI: 8.08 µM
A498 renal
  GI50: 2.18 µM
  TGI: 5.32 µM
A549 NSCLC
  GI50: 6.15 µM
  TGI: 19.9 µM
ACHN renal
  GI50: 2.47 µM
  TGI: 12.7 µM
BT-549 breast
  GI50: 2.67 µM
  TGI: 8.24 µM
CAKI-1 renal
  GI50: 13.2 µM
  TGI: 26.3 µM
CCRF-CEM leukemia
  GI50: 71 µM
  TGI: > 100 µM
COLO 205 colon
  GI50: 10.4 µM
  TGI: 22.6 µM
DU-145 prostate
  GI50: 14.3 µM
  TGI: 29 µM
EKVX NSCLC
  GI50: 6.17 µM
  TGI: 20.6 µM
HCC-2998 colon
  GI50: 11 µM
  TGI: > 100 µM
HCT-116 colon
  GI50: 3.1 µM
  TGI: 12.3 µM
HCT-15 colon
  GI50: 15 µM
  TGI: 32.3 µM
HL-60(TB) leukemia
  GI50: > 100 µM
  TGI: > 100 µM
HOP-62 NSCLC
  GI50: 2.34 µM
  TGI: 4.24 µM
HOP-92 NSCLC
  GI50: 3.85 µM
  TGI: 13.7 µM
HS 578T breast
  GI50: 4.51 µM
  TGI: 15.8 µM
HT29 colon
  GI50: 26 µM
  TGI: > 100 µM
IGROV1 ovarian
  GI50: 1.33 µM
  TGI: 17.9 µM
K-562 leukemia
  GI50: 24.9 µM
  TGI: 74.7 µM
KM12 colon
  GI50: 11.1 µM
  TGI: 24 µM
LOX IMVI melanoma
  GI50: 0.276 µM
  TGI: 16.4 µM
M14 melanoma
  GI50: 14.2 µM
  TGI: 30.4 µM
MALME-3M melanoma
  GI50: 17.2 µM
  TGI: 47.8 µM
MCF7 breast
  GI50: 11.1 µM
  TGI: 23.3 µM
MDA-MB-435 melanoma
  GI50: 19.9 µM
  TGI: 44.3 µM
MDA-MB-468 breast
  GI50: 0.228 µM
  TGI: 9.07 µM
MOLT-4 leukemia
  GI50: 23.8 µM
  TGI: 83.7 µM
NCI-H226 lung
  GI50: 1.86 µM
  TGI: 17 µM
NCI-H23 lung
  GI50: 2.65 µM
  TGI: 11.3 µM
NCI-H322M lung
  GI50: 6.15 µM
  TGI: 24 µM
NCI-H460 NSCLC
  GI50: 3.76 µM
  TGI: 13.9 µM
NCI-H522 lung
  GI50: 10.2 µM
  TGI: 21.9 µM
NCI/ADR-RES ovarian
  GI50: 4.35 µM
  TGI: 17.5 µM
OVCAR-3 ovarian
  GI50: 6.94 µM
  TGI: 20.4 µM
OVCAR-4 ovarian
  GI50: 1.1 µM
  TGI: 9.47 µM
OVCAR-8 ovarian
  GI50: 4.16 µM
  TGI: 13.8 µM
PC-3 prostate
  GI50: 10.1 µM
  TGI: 22 µM
RPMI-8226 leukemia
  GI50: 3.13 µM
  TGI: 12 µM
RXF 393 renal
  GI50: 4.01 µM
  TGI: 15 µM
SF-268 CNS
  GI50: 11.6 µM
  TGI: 24 µM
SF-295 CNS
  GI50: 2.86 µM
  TGI: 9.19 µM
SF-539 CNS
  GI50: 1.66 µM
  TGI: 3.06 µM
SK-MEL-2 melanoma
  GI50: 2.56 µM
  TGI: 7.19 µM
SK-MEL-28 melanoma
  GI50: 17.8 µM
  TGI: 42.2 µM
SK-MEL-5 melanoma
  GI50: 3.59 µM
  TGI: 50.6 µM
SK-OV-3 ovarian
  GI50: 4.81 µM
  TGI: 18.4 µM
SN12C renal
  GI50: 4.44 µM
  TGI: 16.9 µM
SNB-19 CNS
  GI50: 3.59 µM
  TGI: 12.8 µM
SNB-75 CNS
  GI50: 2.92 µM
  TGI: 7.13 µM
SW-620 colon
  GI50: 11.8 µM
  TGI: 25.1 µM
TK-10 renal
  GI50: 2.63 µM
  TGI: 12.9 µM
U251 glioblastoma
  GI50: 3.21 µM
  TGI: 11 µM
UACC-257 melanoma
  GI50: 17.6 µM
  TGI: 52 µM
UACC-62 melanoma
  GI50: 7.21 µM
  TGI: 20.9 µM

## C[C@H](Nc1ccc(C#N)n(C)c1=O)c1cc2cc(Cl)ccc2[nH]c1=O
786-0 renal
  GI50: 34 µM
  TGI: > 100 µM
A498 renal
  GI50: 29.6 µM
  TGI: 98 µM
A549 NSCLC
  GI50: 27.7 µM
  TGI: > 100 µM
ACHN renal
  GI50: 30.8 µM
  TGI: > 100 µM
BT-549 breast
  GI50: 19.4 µM
  TGI: 54.2 µM
CAKI-1 renal
  GI50: 31.1 µM
  TGI: > 100 µM
CCRF-CEM leukemia
  GI50: 25.9 µM
  TGI: 60.7 µM
COLO 205 colon
  GI50: 61.4 µM
  TGI: > 100 µM
DU-145 prostate
  GI50: 29.4 µM
  TGI: > 100 µM
EKVX NSCLC
  GI50: 26.3 µM
  TGI: > 100 µM
HCC-2998 colon
  GI50: 16.4 µM
  TGI: 52.3 µM
HCT-116 colon
  GI50: 29.3 µM
  TGI: > 100 µM
HCT-15 colon
  GI50: 31.4 µM
  TGI: > 100 µM
HL-60(TB) leukemia
  GI50: 20.9 µM
  TGI: 35.3 µM
HOP-62 NSCLC
  GI50: 16.4 µM
  TGI: 42.9 µM
HOP-92 NSCLC
  GI50: 22.8 µM
  TGI: 90.1 µM
HS 578T breast
  GI50: 21.4 µM
  TGI: 74 µM
HT29 colon
  GI50: 42.6 µM
  TGI: > 100 µM
IGROV1 ovarian
  GI50: 17 µM
  TGI: 42.8 µM
K-562 leukemia
  GI50: 35.1 µM
  TGI: > 100 µM
KM12 colon
  GI50: 39.1 µM
  TGI: > 100 µM
LOX IMVI melanoma
  GI50: 26.4 µM
  TGI: 70.7 µM
M14 melanoma
  GI50: 46 µM
  TGI: > 100 µM
MALME-3M melanoma
  GI50: 26.7 µM
  TGI: 78.8 µM
MCF7 breast
  GI50: 24 µM
  TGI: > 100 µM
MDA-MB-231 breast
  GI50: 34.5 µM
  TGI: > 100 µM
MDA-MB-435 melanoma
  GI50: 30.6 µM
  TGI: 69.6 µM
MDA-MB-468 breast
  GI50: 12.7 µM
  TGI: 30.1 µM
MOLT-4 leukemia
  GI50: 12.4 µM
  TGI: 25.1 µM
NCI-H226 lung
  GI50: 13 µM
  TGI: 31 µM
NCI-H23 lung
  GI50: 25.3 µM
  TGI: 75.8 µM
NCI-H322M lung
  GI50: 33.2 µM
  TGI: > 100 µM
NCI-H460 NSCLC
  GI50: 19.3 µM
  TGI: 52 µM
NCI-H522 lung
  GI50: 27.6 µM
  TGI: > 100 µM
NCI/ADR-RES ovarian
  GI50: 19.8 µM
  TGI: 48.6 µM
OVCAR-3 ovarian
  GI50: 17.8 µM
  TGI: 40.7 µM
OVCAR-4 ovarian
  GI50: 16.1 µM
  TGI: 49.6 µM
OVCAR-5 ovarian
  GI50: 60.8 µM
  TGI: > 100 µM
OVCAR-8 ovarian
  GI50: 36.2 µM
  TGI: > 100 µM
PC-3 prostate
  GI50: 19.9 µM
  TGI: 76.1 µM
RPMI-8226 leukemia
  GI50: 11.4 µM
  TGI: 24.4 µM
RXF 393 renal
  GI50: 19.1 µM
  TGI: 53 µM
SF-268 CNS
  GI50: 29.3 µM
  TGI: > 100 µM
SF-295 CNS
  GI50: 13.6 µM
  TGI: 36.8 µM
SF-539 CNS
  GI50: 32.3 µM
  TGI: > 100 µM
SK-MEL-28 melanoma
  GI50: 36.2 µM
  TGI: 94 µM
SK-MEL-5 melanoma
  GI50: 15.4 µM
  TGI: 29 µM
SK-OV-3 ovarian
  GI50: 27.9 µM
  TGI: > 100 µM
SN12C renal
  GI50: 31.4 µM
  TGI: > 100 µM
SNB-19 CNS
  GI50: 41.6 µM
  TGI: > 100 µM
SNB-75 CNS
  GI50: 20.3 µM
  TGI: 73.7 µM
SR leukemia
  GI50: 20.1 µM
  TGI: 39.4 µM
SW-620 colon
  GI50: 52.9 µM
  TGI: > 100 µM
T-47D breast
  GI50: 22.2 µM
  TGI: 86.9 µM
TK-10 renal
  GI50: 32.5 µM
  TGI: > 100 µM
U251 glioblastoma
  GI50: 31.2 µM
  TGI: > 100 µM
UACC-257 melanoma
  GI50: 20.6 µM
  TGI: 38.4 µM
UO-31 renal
  GI50: 33.8 µM
  TGI: > 100 µM

Reference: PubChem BioAssay (NCI)
